Source: US9611251B2, “Substituted piperidine compounds and their use as orexin receptor modulators” (Janssen Pharmaceutica NV, priority 2013, dated 2017)

Columns and labels:
rat orexin 1 receptor = rat orexin 1 receptor (Rattus norvegicus, UniProt P56718); assay: Rat orexin 1 receptor radioligand binding; details: rat orexin 1 receptor radioligand binding; averages of 2-20 runs; read-out: rOX1 Ki
Summary of the method: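 Cell-suspension competition binding used 4 nM final tritiated thiazolyl-pyrrolidinyl-methanone radioligand in PBS, ≤0.1% DMSO, with 10 µM almorexant defining nonspecific binding. Filter-bound radioactivity was counted in triplicate. IC50 came from one-site competition fits and was converted to Ki using the predetermined Kd.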

human orexin 1 receptor = human orexin 1 receptor (Homo sapiens, UniProt O43613); assay: Human orexin 1 receptor radioligand binding; details: human orexin 1 receptor radioligand binding; averages of 2-20 runs; read-out: hOX1 Ki
Experimental: The in vitro affinity of the compounds of the invention for the rat/human orexin 1 and human orexin 2 receptors was determined by competitive radioligand binding using [^3H](1-(5-(2-fluoro-phenyl)-2-methyl-thiazol-4-yl)-1-((S)-2-(5-phenyl-(1,3,4)oxadiazol-2-ylmethyl)-pyrrolidin-1-yl)-methanone) (Langmead et al., 2004) and [^3H]EMPA (n-ethyl-2[96-methoxypyridin-3-yl)-(toluene-2-sulfonyl)-amino]-N-pyridin-3-ylmethyl acetamide), respectively (Langmead et al., 2004, British Journal of Pharmacology 141:340-346; Malherbe et al., 2004, British Journal of Pharmacology 156:1326-41).
Data are analyzed using pc-Sandy macro and graphed on Graphpad Prism 5. For analysis, each concentration point is averaged from triplicate values and the averaged values are plotted on Graphpad Prism. The IC50 was determined by applying the following equation (GraphPad Prism 5.0, SanDiego) for one site competition where X=log (concentration) and Y=specific binding. Top denotes the total [^3H]-(1-(5-(2-fluoro-phenyl)-2-methyl-thiazol-4-yl)-1-((S)-2-(5-phenyl-(1,3,4)oxadiazol-2-ylmethyl)-pyrrolidin-1-yl)-methanone) binding, bottom denotes the nonspecific [^3H]-(1-(5-(2-fluoro-phenyl)-2-methyl-thiazol-4-yl)-1-((S)-2-(5-phenyl-(1,3,4)oxadiazol-2-ylmethyl)-pyrrolidin-1-yl)-methanone) binding. Graphpad Prism calculates Ki value from IC50 and the pre-determined Kd values for [^3H]-(1-(5-(2-fluoro-phenyl)-2-methyl-thiazol-4-yl)-1-((S)-2-(5-phenyl-(1,3,4)oxadiazol-2-ylmethyl)-pyrrolidin-1-yl)-methanone) and [3H]-EMPA. The Ki for each compound is then uploaded into 3DX. Each run comprises individual compounds in triplicate.
Rat and Human Orexin 1 Receptor Radioligand Binding Studies
Human Embryonic Kidney 293 cells (HEK293) stably expressing rat orexin 1 receptor (Genebank accession number NM_001525) or Chinese ovary cells (CHO) stably expressing human orexin 1 receptor (Genebank accession number NM_001526) were grown to confluency in DMEM (Hyclone, cat #SH30022), 10% FBS, 1×Pen/Strep, 1× sodium pyruvate, 10 mM HEPES, 600 μg/mL G418 and DMEM/F12 (Gibco, Cat #11039), 10% FBS, 1×Pen/Strep, 600 μg/mL G418 media, respectively on 150 cm^2 tissue culture plates, washed with 5 mM EDTA in PBS (HyClone Dulbecco's Phosphate Buffered Saline 1× with Calcium and Magnesium, Cat #SH30264.01, hereafter referred to simply as PBS) and scraped into 50 ml tubes. After centrifugation (2K×G, 5 min at 4° C.), the supernatant was aspirated and the pellets frozen and stored at −80° C. Cells were resuspended in PBS in the presence of 1 tablet of protease inhibitor cocktail (Roche, Cat. #11836145001) per 50 mL. Each cell pellet from a 15 cm plate was resuspended in 10 mL, stored on ice, and homogenized for 45 sec prior to addition to the reactions. Competition binding experiments in 96 well polypropylene plates were performed using [^3H]-(1-(5-(2-fluoro-phenyl)-2-methyl-thiazol-4-yl)-1-((S)-2-(5-phenyl-(1,3,4)oxadiazol-2-ylmethyl)-pyrrolidin-1-yl)-methanone) (Moraveck Corporation, specific activity=35.3 Ci/mmol), diluted to a 10 nM concentration in PBS (4 nM final). […] The final concentration of DMSO in the reactions is equal to or less than 0.1%. Total and nonspecific binding was determined in the absence and presence of 10 μM almorexant. The total volume of each reaction is 200 μL (20 μL of diluted compounds, 80 μL of [^3H]-(1-(5-(2-fluoro-phenyl)-2-methyl-thiazol-4-yl)-1-((S)-2-(5-phenyl-(1,3,4)oxadiazol-2-ylmethyl)-pyrrolidin-1-yl)-methanone) diluted in PBS and 100 μL of the cell suspension). Reactions were run for 60 min at room temperature and terminated by filtration through GF/C filter plates (PerkinElmer, Cat. #6005174) presoaked in 0.3% polyethylenimine using the cell harvester (PerkinElmer Filtermate). The plates were washed 3 times by aspirating 30 ml PBS through the plates. Plates were dried in 55° C. oven for 60 min, scintillation fluid was added, and the radioactivity was counted on a Topcount (Packard).

human orexin 2 receptor = human orexin 2 receptor (Homo sapiens (Human), UniProt O43614); assay: Human orexin 2 receptor radioligand binding ([3H]-EMPA); details: averages of 2-20 runs, read-out: hOX2 Ki
Summary of the method: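 Competition binding using homogenized HEK293 cells stably expressing human orexin 2 receptor, [3H]-EMPA at 2 nM final and ≤0.1% DMSO; nonspecific binding set with 10 μM almorexant. Filter-bound radioactivity counted by scintillation; one-site competition IC50 converted to Ki using pre-determined Kd, compounds run in triplicate.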

Chain of human orexin 2 receptor (O43614 whole entry): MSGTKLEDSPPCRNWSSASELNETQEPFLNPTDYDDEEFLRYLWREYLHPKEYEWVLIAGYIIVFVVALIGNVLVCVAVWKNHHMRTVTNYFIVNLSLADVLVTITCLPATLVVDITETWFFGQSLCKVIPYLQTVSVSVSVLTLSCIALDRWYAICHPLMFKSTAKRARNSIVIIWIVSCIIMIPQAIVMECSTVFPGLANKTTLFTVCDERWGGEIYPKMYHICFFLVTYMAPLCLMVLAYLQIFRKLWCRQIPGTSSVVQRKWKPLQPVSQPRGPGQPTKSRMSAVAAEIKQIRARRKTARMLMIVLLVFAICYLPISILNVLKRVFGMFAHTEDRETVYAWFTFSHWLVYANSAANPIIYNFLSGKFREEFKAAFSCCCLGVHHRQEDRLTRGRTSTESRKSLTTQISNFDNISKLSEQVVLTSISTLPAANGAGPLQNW

Row | Compound | Ki (rat orexin 1 receptor) [nM] | Ki (human orexin 1 receptor) [nM] | Ki (human orexin 2 receptor) [nM]
1 | C[C@H]1[C@H](Nc2nc3ccccc3o2)CCCN1C(=O)c1ccc(F)cc1-c1ncccn1 (relative stereo) [Example 206, ((2S*,3R*)-3-(benzo[d]oxazol-2-ylamino)-2-methylpiperidin-1-yl)(4-fluoro-2-(pyrimidin-2-yl)phenyl)methanone] | 16 | 16 | 564
2 | C[C@H]1[C@H](Nc2cnc(C(F)(F)F)cn2)CCCN1C(=O)c1ccc(F)cc1-c1ncco1 (relative stereo) [Example 208, (4-fluoro-2-(oxazol-2-yl)phenyl)((2S*,3R*)-2-methyl-3-((5-(trifluoromethyl)pyrazin-2-yl)amino)piperidin-1-yl)methanone] | 67 | 34 | 1100
3 | C[C@H]1[C@H](Nc2cnc(C(F)(F)F)cn2)CCCN1C(=O)c1ccc(F)cc1-c1ncccn1 (relative stereo) [Example 209, (4-fluoro-2-(pyrimidin-2-yl)phenyl)((2S*,3R*)-2-methyl-3-((5-(trifluoromethyl)pyrazin-2-yl)amino)piperidin-1-yl)methanone] | 16 | 25 | 944
4 | C[C@H]1[C@H](Nc2ccc(C(F)(F)F)cn2)CCCN1C(=O)c1ncccc1-c1ncccn1 (relative stereo) [Example 265, ((2S*,3R*)-2-methyl-3-((5-(trifluoromethyl)pyridin-2-yl)amino)piperidin-1-yl)(3-(pyrimidin-2-yl)pyridin-2-yl)methanone] | 16 | 24 | 293
5 | Cc1cnc(C(=O)N2CCC[C@@H](Nc3ccc(C(F)(F)F)cn3)[C@@H]2C)c(-n2nccn2)c1 [Example 26, ((2S,3R)-2-methyl-3-((5-(trifluoromethyl)pyridin-2-yl)amino)piperidin-1-yl)(5-methyl-3-(2H-1,2,3-triazol-2-yl)pyridin-2-yl)methanone] | 12 | 16 | 2370
6 | Cc1cnc(C(=O)N2CCC[C@@H](Nc3ccc(Cl)cn3)[C@@H]2C)c(-c2ncco2)c1 [Example 77, ((2S,3R)-3-((5-chloropyridin-2-yl)amino)-2-methylpiperidin-1-yl)(5-methyl-3-(oxazol-2-yl)pyridin-2-yl)methanone] | 41 | 60 | 4230
7 | COc1ccc(-n2nccn2)c(C(=O)N2CCC[C@@H](Nc3ncc(C(F)(F)F)cn3)[C@@H]2C)c1 [Example 89, (5-methoxy-2-(2H-1,2,3-triazol-2-yl)phenyl)((2S,3R)-2-methyl-3-((5-(trifluoromethyl)pyrimidin-2-yl)amino)piperidin-1-yl)methanone] | 11 | 9 | 422
8 | COc1ccc(C(=O)N2CCC[C@@H](Nc3ccc(C(F)(F)F)cn3)[C@@H]2C)c(-n2nccn2)c1 [Example 97, (4-methoxy-2-(2H-1,2,3-triazol-2-yl)phenyl)((2S,3R)-2-methyl-3-((5-(trifluoromethyl)pyridin-2-yl)amino)piperidin-1-yl)methanone] | 33 | 34 | 4900
9 | Cc1cnc(C(=O)N2CCC[C@@H](Oc3cnc(C(F)(F)F)cn3)[C@@H]2C)c(-n2nccn2)c1 [Example 105, ((2S,3R)-2-methyl-3-((5-(trifluoromethyl)pyrazin-2-yl)oxy)piperidin-1-yl)(5-methyl-3-(2H-1,2,3-triazol-2-yl)pyridin-2-yl)methanone] | 192 | 269 | > 10000
10 | C[C@H]1[C@H](Oc2cnc(C(F)(F)F)cn2)CCCN1C(=O)c1ccccc1-n1nccn1 [Example 106, (2-(2H-1,2,3-triazol-2-yl)phenyl)((2S,3R)-2-methyl-3-((5-(trifluoromethyl)pyrazin-2-yl)oxy)piperidin-1-yl)methanone] | 44 | 45 | 912
11 | Cc1ccc(-n2nccn2)c(C(=O)N2CCC[C@@H](Oc3cnc(C(F)(F)F)cn3)[C@@H]2C)n1 [Example 107, ((2S,3R)-2-methyl-3-((5-(trifluoromethyl)pyrazin-2-yl)oxy)piperidin-1-yl)(6-methyl-3-(2H-1,2,3-triazol-2-yl)pyridin-2-yl)methanone] | 34 | 38 | 2300
12 | C[C@H]1[C@H](Oc2ccc(C(F)(F)F)cn2)CCCN1C(=O)c1ccccc1-n1nccn1 [Example 110, (2-(2H-1,2,3-triazol-2-yl)phenyl)((2S,3R)-2-methyl-3-((5-(trifluoromethyl)pyridin-2-yl)oxy)piperidin-1-yl)methanone] | 12 | 11 | 246
13 | Cc1cnc(C(=O)N2CCC[C@@H](Oc3ccc(C(F)(F)F)cn3)[C@@H]2C)c(-n2nccn2)c1 [Example 111, ((2S,3R)-2-methyl-3-((5-(trifluoromethyl)pyridin-2-yl)oxy)piperidin-1-yl)(5-methyl-3-(2H-1,2,3-triazol-2-yl)pyridin-2-yl)methanone] | 22 | 31 | 5100
14 | Cc1ccc(C(=O)N2CCC[C@@H](Oc3ccc(C(F)(F)F)cn3)[C@@H]2C)c(-n2nccn2)c1 [Example 112, (4-methyl-2-(2H-1,2,3-triazol-2-yl)phenyl)((2S,3R)-2-methyl-3-((5-(trifluoromethyl)pyridin-2-yl)oxy)piperidin-1-yl)methanone] | 7 | 11 | 664
15 | Cc1ccc(C(=O)N2CCC[C@@H](Oc3cnc(C(F)(F)F)cn3)[C@@H]2C)c(-n2nccn2)c1 [Example 113, (4-methyl-2-(2H-1,2,3-triazol-2-yl)phenyl)((2S,3R)-2-methyl-3-((5-(trifluoromethyl)pyrazin-2-yl)oxy)piperidin-1-yl)methanone] | 25 | 43 | 3900
16 | C[C@H]1[C@H](Oc2ccc(C(F)(F)F)cn2)CCCN1C(=O)c1cccc(F)c1-c1ncccn1 [Example 116, (3-fluoro-2-(pyrimidin-2-yl)phenyl)((2S,3R)-2-methyl-3-((5-(trifluoromethyl)pyridin-2-yl)oxy)piperidin-1-yl)methanone] | 15 | 18 | 598
17 | C[C@H]1[C@H](Oc2ccc(C(F)(F)F)cn2)CCCN1C(=O)c1cccc(F)c1-n1nccn1 [Example 124, (3-fluoro-2-(2H-1,2,3-triazol-2-yl)phenyl)((2S,3R)-2-methyl-3-((5-(trifluoromethyl)pyridin-2-yl)oxy)piperidin-1-yl)methanone] | 21 | 13 | 460
